By inhibition is commonly meant the relative decrease from the control value, in per cent.

In the assay the target is Aβ1-42 peptide (Homo sapiens, UniProt P05067). Description: Thioflavin T spectrofluorescence assay (ThT-assay): inhibition of Aβ1-42 aggregation (% inhibition at 330 μM; IC50 from dilution series). Particulars: 24 h, read-out: Inhibition at 330 μM [%], ThT assay; 330 μM small molecule, 33 μM Aβ1-42 (10:1), 24 hrs at 37° C.; mean ± standard deviation of two independent experiments.
Chain of Aβ1-42 peptide (P05067 672-713 limits assumed): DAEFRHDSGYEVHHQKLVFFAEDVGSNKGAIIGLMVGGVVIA

Method: Aβ1-42 lyophilized powder (Bachem) was reconstituted in hexafluoroisopropanol (HFIP) to 1 mM. The peptide solution was sonicated for 15 min at room temperature, agitated overnight, and aliquots were made into non-siliconized microcentrifuge tubes. The HFIP was then evaporated under a stream of argon. The resulting peptide film was dried under vacuum for 10 min, tightly sealed and stored at −80° C. until used.
A positive control without a small molecule was prepared to measure maximum RFU. A negative control without Aβ1-42 was prepared for each small molecule. […] The solutions were then incubated for 24 hrs at 37° C., and the spectrofluorescence (relative fluorescence units; RFU) were read in six replicates in black 384-well assay plates (Perkin-Elmer) on a Perkin-Elmer FluoroCount spectrofluorometer. The inhibition of aggregation is expressed as mean % inhibition±1 standard deviation (SD) according to the following equation:
Racemic compounds and their enantiomers were tested for their ability to inhibit amyloid peptide aggregation using the ThT assay. To determine the IC50, the following dilutions of the compounds were used in the ThT assay described above:

`CN1CCC(c2cn(C)c3nc(Nc4ccc(F)c(F)c4)ccc23)CC1` [Example 151]: the inhibition at 330 µM came to 88.5 ± 2.8%. The value for `CN1CCC(c2cn(C)c3nc(Nc4ccc5c(c4)CN(C)CC5)ccc23)CC1` [Example 152] was 80.8 ± 3.6%; that for `CN1CCC(c2c[nH]c3cc(Nc4ccc5c(c4)OCO5)ccc23)CC1` [Example 153] was 91.3 ± 4.2%; that for `CN1CCC(c2c[nH]c3cc(Nc4ccc5c(c4)CNCC5)ccc23)CC1` [Example 154] was 86.3 ± 2.6%. The value for `CNC1CCc2c(c3ccc(Nc4ccc5c(c4)OCO5)nc3n2C)C1` (stereo not drawn) [Example 157] was 95 ± 1.5%. The result for `CNC1CCc2c(c3ccc(Nc4ccc5c(c4)CN(C)CC5)nc3n2C)C1` (stereo not drawn) [Example 158] reads 87.8 ± 3.6%. `CNC1CCc2c(c3ccc(Nc4ccc5ncn(C)c5c4)nc3n2C)C1` (stereo not drawn) [Example 159]: the inhibition at 330 µM turned out to be 91.9 ± 1.6%. The value for `CNC1CCc2c(c3ccc(Nc4ccc(C)c(OC)c4)nc3n2C)C1` (stereo not drawn) [Example 160] was 96.3 ± 0.3%; that for `CN1CCC(c2c[nH]c3cc(Nc4ccc(N5CCOCC5)cc4)ccc23)CC1` [Example 162] was 94.5 ± 3.1%; that for `Cn1c2c(c3ccc(N4CCOCC4)nc31)CCCC2` [Example 163] was 32.7 ± 0.9%.

As for `CC(=O)N(C)C1CCc2c(c3ccc(Nc4ccc(N5CCOCC5)cc4)nc3n2C)C1` (stereo not drawn) [Example 164], the inhibition at 330 µM stood at 69.4 ± 2.7%.

For `Cn1c2c(c3ccc(Nc4ccc(N5CCOCC5)cc4)nc31)CCCC2` [Example 165], the inhibition at 330 µM was found to be 78.1 ± 0.2%.

On to `CN1CCN(c2ccc(Nc3ccc4c5c(n(C)c4n3)CCCC5)cc2)CC1` [Example 166], for which the inhibition at 330 µM was found to be 93.6 ± 2.2%. The result for `Cn1c2c(c3ccc(Nc4ccc5c(c4)OCC(=O)N5)nc31)CCCC2` [Example 167] reads 88.9 ± 2.6%. With `Cn1c2c(c3ccc(Nc4ccc5c(c4)NC(=O)CO5)nc31)CCCC2` [Example 168], the inhibition at 330 µM was 82.1 ± 7%.

Turning to `Cn1c2c(c3ccc(Nc4ccc5c(c4)OCO5)nc31)CCCC2` [Example 169], the inhibition at 330 µM was found to be 92.4 ± 4%.

Turning to `CC(=O)N1CCN(c2ccc(Nc3ccc4c5c(n(C)c4n3)CCCC5)cc2)CC1` [Example 170], the inhibition at 330 µM came out at 70.8 ± 2.3%.

Consider `Cn1cnc2ccc(Nc3ccc4c5c(n(C)c4n3)CCCC5)cc21` [Example 172], for which the inhibition at 330 µM turned out to be 68.3 ± 0.8%. In the case of `Cn1c2c(c3ccc(Nc4ccc5c(c4)OCCO5)nc31)CCC2` [Example 173], the inhibition at 330 µM stood at 90.1 ± 2.3%. Consider `CN1CCc2ccc(Nc3ccc4c5c(n(C)c4n3)CCC5)cc2C1` [Example 174], for which the inhibition at 330 µM came to 87.2 ± 1.3%. The result for `Cn1cnc2ccc(Nc3ccc4c5c(n(C)c4n3)CCC5)cc21` [Example 175] reads 75.5 ± 7.8%; that for `Cn1c2c(c3cc(Nc4ccc(F)c(F)c4)ccc31)CS(=O)(=O)CC2` [Example 176], 41.5 ± 3.6%; that for `Cn1c2c(c3cc(Nc4ccc5c(c4)OCCO5)ccc31)CS(=O)(=O)CC2` [Example 177], 29.6 ± 6.2%. Consider `COc1cc(Nc2ccc3c(c2)c2c(n3C)CCS(=O)(=O)C2)ccc1C` [Example 178], for which the inhibition at 330 µM stood at 35.4 ± 5.9%. Turning to `Cn1c2c(c3cc(Nc4ccc(C(F)(F)F)nc4)ccc31)CS(=O)(=O)CC2` [Example 179], the inhibition at 330 µM was determined as 30.2 ± 0.9%. Consider `CN1CCc2ccc(Nc3ccc4c(c3)c3c(n4C)CCS(=O)(=O)C3)cc2C1` [Example 180], for which the inhibition at 330 µM was 50.2 ± 0.9%. The result for `Cn1cnc2ccc(Nc3ccc4c(c3)c3c(n4C)CCS(=O)(=O)C3)cc21` [Example 181] reads 6.6 ± 4.3%; that for `CN1CCN(c2ccc(Nc3ccc4c(c3)c3c(n4C)CCS(=O)(=O)C3)cc2)CC1` [Example 182], 66.1 ± 6.9%; that for `Cn1c2c(c3cc(Nc4ccc(F)nc4)ccc31)CS(=O)(=O)CC2` [Example 183], 42.3 ± 3.1%. As to `Cn1c2c(c3cc(Nc4ccc(N5CCOCC5)cc4)ccc31)CS(=O)(=O)CC2` [Example 184], the inhibition at 330 µM was 41.3 ± 1.1%. As for `c1ccc(Nc2ccc3c(c2)OCO3)cc1` [Example 185], the inhibition at 330 µM was found to be 55.2 ± 6%.

As for `Fc1ccc(Nc2ccc3c(c2)OCO3)cc1F` [Example 186], the inhibition at 330 µM was found to be 66.5 ± 2.4%.

For the molecule `c1cc2c(cc1Nc1ccc3c(c1)OCO3)OCO2` [Example 187], the inhibition at 330 µM came to 82.2 ± 6%. On to `c1cc(N2CCOCC2)ccc1Nc1ccc2c(c1)OCO2` [Example 188], for which the inhibition at 330 µM turned out to be 83.3 ± 6%. In the case of `CN1CCN(C(=O)c2ccc(Nc3ccc(F)cc3)cc2)CC1` [Example 189], the inhibition at 330 µM came out at 12.6 ± 5.5%. The result for `CN1CCN(C(=O)c2ccc(Nc3ccc4c(c3)OCO4)cc2)CC1` [Example 190] reads 20.1 ± 4.6%; that for `COC1CCc2c(c3ccc(Nc4ccc(F)cc4)cc3n2C)C1` (stereo not drawn) [Example 191], 89.7 ± 1.4%.

For the molecule `COC1CCc2c(c3ccc(Nc4ccc(N5CCOCC5)cc4)nc3n2C)C1` (stereo not drawn) [Example 193], the inhibition at 330 µM stood at 54.3 ± 3.4%. `CN1CCC(c2c[nH]c3cc(Nc4ccc5c(c4)OCCN5C)ccc23)CC1` [Example 194]: the inhibition at 330 µM was determined as 106.1 ± 0.3%.

Regarding `CN1CCC(c2c[nH]c3cc(Nc4ccc(F)cc4)ccc23)CC1` [Example 195], the inhibition at 330 µM was determined as 89.7 ± 2.4%.

With `CN1CCC(c2c[nH]c3cc(Nc4ccc5c(C6CCN(C)CC6)cn(C)c5n4)ccc23)CC1` [Example 196], the inhibition at 330 µM came to 80 ± 4.6%.

For the molecule `COC1CCc2c(c3ccc(Nc4ccc5c(c4)OCCO5)nc3n2C)C1` (stereo not drawn) [Example 198], the inhibition at 330 µM came to 92.1 ± 0.3%.

For `CCOC(=O)N1CCc2c(c3cc(Nc4ccc(F)c(F)c4)ccc3n2C)C1` [Example 199], the inhibition at 330 µM was 68.6 ± 0.5%. For the molecule `CN1CCC(c2c[nH]c3cc(Nc4ccc5ncn(C)c5c4)ccc23)CC1` [Example 200], the inhibition at 330 µM turned out to be 67.4 ± 3.4%. The value for `CN1CCc2ccc(Nc3ccc4c5c(n(C)c4n3)CCCC5)cc2C1` [Example 201] was 93.3 ± 0.1%; that for `Cn1c2c(c3ccc(Nc4ccc5c(c4)OCCO5)cc31)CNCC2` [Example 202] was 86.1 ± 1.6%. Consider `CC(C)OC1CCc2c(c3ccc(Nc4ccc5c(c4)OCCO5)nc3n2C)C1` (stereo not drawn) [Example 203], for which the inhibition at 330 µM turned out to be 93.4 ± 3.5%.

In the case of `COC1CCc2c(c3ccc(Nc4ccc(F)c(F)c4)nc3n2C)C1` (stereo not drawn) [Example 204], the inhibition at 330 µM was determined as 93.5 ± 0.4%.

For the molecule `COC1CCc2c(c3ccc(Nc4ccc5c(c4)OCO5)nc3n2C)C1` (stereo not drawn) [Example 205], the inhibition at 330 µM was determined as 91.7 ± 0.1%.

For `CN1CCc2c(c3cc(Nc4ccc(F)c(F)c4)ccc3n2C)C1` [Example 206], the inhibition at 330 µM was determined as 94.5 ± 0.7%. The value for `Cn1c2c(c3ccc(Nc4ccc5c(c4)OCCO5)cc31)CN(CCCCS(C)(=O)=O)CC2` [Example 207] was 75.6 ± 13.4%. Consider `Cn1c2c(c3cc(Nc4ccc(F)c(F)c4)ccc31)CN(CCCCS(C)(=O)=O)CC2` [Example 208], for which the inhibition at 330 µM worked out at 85 ± 3.3%. The value for `Cn1c2c(c3cc(Nc4ccc5c(c4)OCCO5)ccc31)CN(CCCCS(C)(=O)=O)CC2` [Example 209] was 66.2 ± 6.5%; that for `Cn1c2c(c3ccc(Nc4ccc(F)c(F)c4)cc31)CN(CCCCS(C)(=O)=O)CC2` [Example 210] was 43.2 ± 12.9%.
